Results: patent publication US20240398737A1, “FUNCTIONALIZED LONG-CHAIN HYDROCARBON MONO- AND DI-CARBOXYLIC ACIDS AND DERIVATIVES THEREOF, AND THEIR USE FOR THE PREVENTION OR TREATMENT OF DISEASE” (Espervita Therapeutics, Inc., priority 2021, published 2024)

Molecular target: Human ACC1 (Homo sapiens (Human), UniProt Q13085)
Test: ACC1 enzymatic assay (ADP-Glo)
Type: biochemical
Parameters: key to Compound IC50 (M) ACC1: *: No detectable inhibition or compound activity
Details: recombinant human ACC1 5 nM; 10 concentrations from 300 μM; Runs 1-3
Protocol: Human ACC1 (Cat #50202 Lot #120830) and ACC2 (Cat #50201 Lot #160217) were obtained from BPS Biosciences, San Diego, CA 92121. Human ACC1 had C-terminal flag and His-tags with a MW of 270 KDa after purification from Baculovirus infected Sf9 cell expression system and came as a solution in 50 mM Tris-HCl, pH 8.0, 500 mM NaCl, 10% glycerol, 1 mM DTT, 100 μg/ml FLAG peptide with 70% purity. The stock concentration was 0.25 mg/ml corresponding to 0.926 μM. Human ACC2 was also purified from Baculovirus infected Sf9 expression system. […] The stock concentration was 0.1 mg/ml corresponding to 0.36 μM. The assay buffer for measuring the activity of ACC contained: 30 mM HEPES (pH 7.4), 2 mM MgCl2, 0.01% Brij35, 2 mM DTT, 1% DMSO (solvent for compound). For ACC1 and ACC2 assays, the following concentrations of substrate and cofactors were used: 12 mM NaHCO3, 10 μM acetyl CoA, 10 μM ATP, and 2 mM K-citrate. The recombinant human enzyme was used at 5 nM for ACC1 and 1 nM for ACC2. In brief, enzyme alone in the above buffer without substrate was used for background. All test materials were dissolved in 100% DMSO using acoustic technology (Echo550). The prepared solution was preincubated for 15 min followed by the addition of 5 μL/well of ADP standard. ATP was then added to start the reaction. The assay contents were spun and briefly shaken followed by incubation at room temperature for 1 h. At the end of completion of assay, 5 μL of ADP-Glo was added to each well to stop the reaction. The contents were mixed, spun and incubated at room temperature for 40 min followed by the addition of 10 μL/well of ADP detection reagent. The contents were spun, mixed and covered with plastic to measure luminescence. […] The light generated, measured in a luminometer, correlates to the amount of ADP generated in the ACC assay, which is indicative of ACC activity.
The enzyme concentrations for ACC1 and ACC2 were 5 nM and 1 nM, respectively.
Data represent nM or μM ADP produced, % Activity (relative to no inhibitor controls), and curve fits were performed by GraphPad Prism software. […]

## CC(C)(CCCCc1ccc(CCCCC(C)(C)C(=O)O)cc1)C(=O)O [Compound I-1, 6-[4-(5-carboxy-5-methylhexyl)-phenyl]-2,2-dimethylhexanoic acid]
  Compound IC50 (M) ACC1: *
